Results published in ChEMBL document CHEMBL5370579, “Structure-based lead optimization to improve potency and selectivity of a novel tetrahydroimidazo[1,2-a]pyridine-5-carboxylic acid series of heparanase-1 inhibitor” (Bioorg Med Chem, 2023).
Values belong to the compound of their own block, whether it stands above or below them. Active and inactive are the calls of the source. The calls are words filed in the database; no cut-off is given here.

What was measured:
Heparanase = target: T1, Heparanase (Homo sapiens, UniProt Q9Y251); experiment: Inhibition of recombinant human HPSE1 using biotinylated heparan sulfate-Eu cryptate as substrate pre-incubated for 10 mins followed by substrate addition and measured after 60 mins by fluorescence based HTRF assay
T1 sequence (Q9Y251 whole entry): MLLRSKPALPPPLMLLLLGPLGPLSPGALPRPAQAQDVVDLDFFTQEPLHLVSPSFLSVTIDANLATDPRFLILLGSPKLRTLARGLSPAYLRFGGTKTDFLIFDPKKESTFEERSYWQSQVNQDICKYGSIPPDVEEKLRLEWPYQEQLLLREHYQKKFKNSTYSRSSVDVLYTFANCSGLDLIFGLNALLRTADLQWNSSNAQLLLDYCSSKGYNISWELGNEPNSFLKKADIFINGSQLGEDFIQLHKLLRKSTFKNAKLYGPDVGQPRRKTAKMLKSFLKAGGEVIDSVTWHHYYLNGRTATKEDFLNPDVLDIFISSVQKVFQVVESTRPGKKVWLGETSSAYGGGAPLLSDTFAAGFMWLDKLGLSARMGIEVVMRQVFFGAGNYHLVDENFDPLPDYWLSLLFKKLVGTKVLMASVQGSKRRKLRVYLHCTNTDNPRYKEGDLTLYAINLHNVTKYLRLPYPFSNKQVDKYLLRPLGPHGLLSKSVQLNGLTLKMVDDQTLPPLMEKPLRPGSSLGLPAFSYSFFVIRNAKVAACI

[1] = Half life in C57BL/6J mouse at 0.5 mg/kg, iv measured after 0.083 to 24 hrs by LC-MS/MS analysis; assay type: ADME, organism-based; conditions: in vivo, time 0.083-24 hrs
[2] = Volume of distribution at steady state in C57BL/6J mouse at 0.5 mg/kg, iv measured after 0.083 to 24 hrs by LC-MS/MS analysis; assay type: ADME, organism-based; conditions: in vivo, time 0.083-24 hrs, read-out: Vdss
Beta-glucuronidase = target: T2, Beta-glucuronidase (Homo sapiens, UniProt P08236); experiment: Inhibition of recombinant human GUSbeta using 4-MUG as substrate pre-incubated for 10 mins followed by substrate addition and measured after 60 mins by fluorescence based assay
T2 sequence (P08236 whole entry): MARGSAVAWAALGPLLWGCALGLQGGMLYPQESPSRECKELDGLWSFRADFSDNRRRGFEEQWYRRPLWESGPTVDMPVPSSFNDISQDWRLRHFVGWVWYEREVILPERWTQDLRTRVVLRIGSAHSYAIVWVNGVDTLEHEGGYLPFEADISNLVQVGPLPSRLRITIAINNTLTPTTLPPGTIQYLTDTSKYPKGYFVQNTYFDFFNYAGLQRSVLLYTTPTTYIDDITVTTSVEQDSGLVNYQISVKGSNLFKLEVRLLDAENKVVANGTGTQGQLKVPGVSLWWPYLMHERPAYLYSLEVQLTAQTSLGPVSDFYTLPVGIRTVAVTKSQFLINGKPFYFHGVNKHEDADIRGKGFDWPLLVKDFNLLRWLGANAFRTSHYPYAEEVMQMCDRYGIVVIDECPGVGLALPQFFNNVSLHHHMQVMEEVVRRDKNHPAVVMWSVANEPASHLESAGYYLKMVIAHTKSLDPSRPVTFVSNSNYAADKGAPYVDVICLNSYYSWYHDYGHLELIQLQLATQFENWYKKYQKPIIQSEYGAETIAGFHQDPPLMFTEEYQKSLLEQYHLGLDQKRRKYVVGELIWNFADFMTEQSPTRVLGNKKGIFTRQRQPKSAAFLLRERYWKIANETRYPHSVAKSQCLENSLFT

[3] = Protein binding in C57BL/6J mouse serum at 1 ug/ml measured after 4 hrs by LC-MS/MS analysis; assay type: ADME, cell-free; conditions: at 1 µg/mL, read-out: PB (converted)
[4] = Drug excretion in C57BL/6J mouse urine at 0.5 mg/kg, iv measured after 24 hrs by LC-MS/MS analysis; assay type: ADME, organism-based; conditions: read-out: Drug excretion
[5] = Total clearance in C57BL/6J mouse at 0.5 mg/kg, iv measured after 0.083 to 24 hrs by LC-MS/MS analysis; assay type: ADME, organism-based; conditions: in vivo, time 0.083-24 hrs
[6] = Inhibition of recombinant human GBA using 4-MUBDG as substrate pre-incubated for 10 mins followed by substrate addition and measured after 24 hrs by fluorescence based assay
[7] = Drug concentration in C57BL/6J mouse plasma at 30 mg/kg, sc measured after 4 hrs by LC-MS/MS analysis; assay type: ADME, organism-based
[8] = Drug concentration in C57BL/6J mouse plasma at 3 mg/kg, sc measured after 1 hrs by LC-MS/MS analysis; assay type: ADME, organism-based
[9] = Drug concentration in C57BL/6J mouse plasma at 3 mg/kg, sc measured after 4 hrs by LC-MS/MS analysis; assay type: ADME, organism-based
[10] = Drug concentration in C57BL/6J mouse plasma at 30 mg/kg, sc measured after 1 hrs by LC-MS/MS analysis; assay type: ADME, organism-based
[11] = Drug concentration in C57BL/6J mouse plasma at 100 mg/kg, sc measured after 4 hrs by LC-MS/MS analysis; assay type: ADME, organism-based
[12] = Drug concentration in C57BL/6J mouse plasma at 100 mg/kg, sc measured after 1 hrs by LC-MS/MS analysis; assay type: ADME, organism-based
Mus musculus = experiment: In vivo inhibition of HPSE1 in C57BL/6J mouse at 3 to 100 mg/kg, sc measured after 1 to 4 hrs; assay type: functional, organism-based; conditions: dose 3-100 mg/kg, time 1-4 hrs
[13] = Inhibition of bovine liver beta-glucuronidase; assay type: tissue-based, Bos taurus

IC50 (Heparanase): 1100 nM
SMILES: O=C(O)[C@@H]1[C@@H](O)[C@H](O)[C@@H](O)c2nc(-c3ccc(Oc4ccccc4)cc3)cn21

half-life [1]: 96 min
Vd [2]: 0.439 L/kg
IC50 (Beta-glucuronidase): 8 nM
fraction unbound at 4 h, 1 ug/ml [3]: 0.036
dose excreted at 24 h [4]: 44.2%
clearance [5]: 8.18 mL/min/kg
IC50 (Heparanase): 467 nM
IC50 [6]: 53 nM
SMILES: O=C(O)[C@@H]1[C@@H](O)[C@H](O)[C@@H](O)c2nc(CCc3cccc(Oc4ccccc4)c3)cn21

Ki [13]: 12 nM
SMILES: O=C(O)[C@@H]1[C@@H](O)[C@H](O)[C@@H](O)c2nccn21

IC50 (Heparanase): 586 nM
SMILES: O=C(O)[C@@H]1[C@@H](O)[C@H](O)[C@@H](O)c2nc(CCc3ccc(Oc4ccccc4)cc3)cn21

Continued, compound first:

SMILES: COc1cccc(OC)c1Oc1cccc(CCc2cn3c(n2)[C@H](O)[C@@H](O)[C@H](O)[C@H]3C(=O)O)c1OC
IC50 (Heparanase): 9950 nM

SMILES: O=C(O)[C@@H]1[C@@H](O)[C@H](O)[C@@H](O)c2nc(CCc3ccc(S(=O)(=O)c4ccccc4)cc3)cn21
IC50 (Heparanase): 748 nM

SMILES: O=C(O)[C@@H]1[C@@H](O)[C@H](O)[C@@H](O)c2nc(CCc3ccc(CCc4ccccc4)cc3)cn21
IC50 (Heparanase): 2000 nM

SMILES: COc1c(CCc2cn3c(n2)[C@H](O)[C@@H](O)[C@H](O)[C@H]3C(=O)O)cccc1Oc1ccccc1
IC50 (Heparanase): 1600 nM

SMILES: O=C(O)[C@@H]1[C@@H](O)[C@H](O)[C@@H](O)c2nc(C3CCN(C(=O)c4ccccc4Oc4ccccc4)CC3)cn21
IC50 (Heparanase): 1750 nM

SMILES: CO[C@H]1[C@H](O)[C@@H](O)c2nc(CCc3cccc(Oc4ccccc4)c3)cn2[C@@H]1C(=O)O
half-life [1]: 126 min
Vd [2]: 0.666 L/kg
concentration at 4 h [7]: 1070 ng/mL
concentration at 1 h [8]: 1240 ng/mL
IC50 (Beta-glucuronidase): 839 nM
fraction unbound at 4 h, 1 ug/ml [3]: 0.045
dose excreted at 24 h [4]: 31.1%
clearance [5]: 5.83 mL/min/kg
concentration at 4 h [9]: 191 ng/mL
concentration at 1 h [10]: 9820 ng/mL
concentration at 4 h [11]: 1880 ng/mL
IC50 (Heparanase): 442 nM
IC50 [6]: 439 nM
concentration at 1 h [12]: 24200 ng/mL
inhibition (Mus musculus): Active

SMILES: Cc1ccc(S(=O)(=O)Nc2ccc(CCc3cn4c(n3)[C@H](O)[C@@H](O)[C@H](O)[C@H]4C(=O)O)cc2)cc1
IC50 (Heparanase): 1340 nM

SMILES: CC(C)c1ccc(Oc2cccc(CCc3cn4c(n3)[C@H](O)[C@@H](O)[C@H](O)[C@H]4C(=O)O)c2)cc1
IC50 (Heparanase): 1380 nM
